In PubChem BioAssay AID624167 (Sanford-Burnham Center for Chemical Genomics, 2012):
Calls of active or inactive are those of the source.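 The calls were made as follows: active = mean IC50 for reducing PEG3 promoter reporter signal at or below a set limit, with IC50 above the limit in both counter screens; inactive = the rest, including counter screen hits.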

How the values were obtained:
PEG-3 [1] = molecular target: PEG-3 (UniProt Q6IN02); experiment: inhibition of PEG-3 promoter-driven reporter – cell-based, HeLa, luciferase, CREF/GAPDH counter-screen panel, dose response (AID 624167); settings: HeLa PEG-Prom luciferase reporter, overnight, CREF/GAPDH counter-screens, mean of runs
Chain of PEG-3 (UniProt Q6IN02) (Q6IN02 whole entry, looked up): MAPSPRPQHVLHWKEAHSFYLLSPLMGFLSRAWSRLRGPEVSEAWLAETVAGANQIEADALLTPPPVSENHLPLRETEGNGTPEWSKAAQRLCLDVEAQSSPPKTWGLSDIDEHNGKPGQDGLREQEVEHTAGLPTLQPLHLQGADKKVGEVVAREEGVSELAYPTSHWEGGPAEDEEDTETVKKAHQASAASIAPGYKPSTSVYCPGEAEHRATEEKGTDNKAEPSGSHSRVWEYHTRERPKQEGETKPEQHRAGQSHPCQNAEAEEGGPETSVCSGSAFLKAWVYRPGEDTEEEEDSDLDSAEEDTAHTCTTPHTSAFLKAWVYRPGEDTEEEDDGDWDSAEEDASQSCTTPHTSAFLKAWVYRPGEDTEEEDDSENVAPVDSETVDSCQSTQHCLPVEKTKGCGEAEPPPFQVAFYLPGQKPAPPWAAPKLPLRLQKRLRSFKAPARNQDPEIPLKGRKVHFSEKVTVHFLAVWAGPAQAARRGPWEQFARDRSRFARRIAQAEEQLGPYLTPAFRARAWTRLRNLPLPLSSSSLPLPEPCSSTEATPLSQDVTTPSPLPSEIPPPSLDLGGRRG

PEG-3 [2] = experiment: as above; settings: HeLa PEG-Prom luciferase reporter, overnight, CREF/GAPDH counter-screens
[3] = run 1, dose range 1, individual replicate IC50 per panel
[4] = run 2, dose range 1, individual replicate IC50 per panel

| Structure (SMILES) | IC50 (PEG-3 [1]) | IC50 (PEG-3 [2]; [3]) [µM] | IC50 (PEG-3 [2]; [4]) [µM] |
| --- | --- | --- | --- |
| CC(C)c1ccc(NC(=O)Nc2nc(C(C)N)cs2)cc1 (stereo not drawn) | 17 µM | 20.1 | 13.8 |
| CC1CCCCN1S(=O)(=O)c1ccc(C(=O)N(CCCN(C)C)c2nc3ccc(Br)cc3s2)cc1 (stereo not drawn) | 15 µM | 19.1 | 10.9 |
| O=S(=O)(c1cccs1)N1CCN(c2ccnc3cc(Cl)ccc23)CC1 | 17.4 µM | 11.7 | 23.2 |
| O=C(/C=C/c1ccccc1)NC(NC(=S)Nc1cccc(Cl)c1)C(Cl)(Cl)Cl (stereo not drawn) | 14.3 µM | 18 | 10.6 |
| COc1cc(C(=O)/C=C/c2cccnc2)c([N+](=O)[O-])cc1OC | 18.3 µM | 19.3 | 17.3 |
| COc1ccccc1C1c2ccc3ccccc3c2Oc2ncn(CCCO)c(=N)c21 (stereo not drawn) | 15.8 µM | 17.4 | 14.2 |
| CC(C)(C)n1nnnc1C(CCc1ccccc1)N1CCC(n2c(=O)[nH]c3ccccc32)CC1 (stereo not drawn) | inactive | 18.3 | 24.7 |
| Cc1cccc(CN2C(=O)[C@H]3Cc4c([nH]c5ccccc45)C(C)(C)N3C2=O)c1 | inactive | 29.9 | 28.6 |
| COC(=O)CSC1=NS(=O)(=O)c2ccccc21 | inactive | > 100 | 33.5 |
| CC(=O)Nc1ccc(S(=O)(=O)N(Cc2ccco2)Cc2cc3ccccc3[nH]c2=O)cc1 | inactive | 18.5 | 22.4 |
| Cc1c(C(=O)Nc2ccc(S(=O)(=O)N(C)C3CCN(C)CC3)cc2)oc2c(Cl)cccc12 | 12.8 µM | 16.5 | 9.1 |
| NC(N)=N/N=C/c1cccc(Cl)c1Cl | 16 µM | 17.4 | 14.5 |
| CCc1ccc2c(c1)Sc1ccccc1CC2N1CCN(C)CC1 (stereo not drawn) | inactive | 19.7 | 38 |
| COc1ccc(C23CC4CC(CC(C4)C2)C3)cc1C(=O)NCCN(C)C | inactive | 20.6 | 29.9 |
| COC(=O)C1=C(C(=O)OC)C(C(=O)OC)C(C(=O)OC)C(C(=O)OC)(C(=O)OC)C(C(=O)OC)=C1C(=O)OC (stereo not drawn) | 13.8 µM | 16.9 | 10.7 |
| Cc1cc2sc3ccc(C#CC4(O)CCCCC4)cc3c(=O)c2cc1C | 0.265 µM | 0.265 | < 0.2 |
| Cc1cccc(-n2ncc3c(N(C)C4CCCCC4)ncnc32)c1 | inactive | 22.6 | 26.7 |
| COc1ccc(OC)c(Cc2cnc3nc(N)nc(N)c3c2C)c1 | inactive | 48.7 | 1.36 |
| CC(=O)c1cccc(-c2csc3ncnc(Sc4nnnn4C)c23)c1 | 15.7 µM | 16 | 15.3 |
| COc1cccc2sc(N(CCCN(C)C)C(=O)C(c3ccccc3)c3ccccc3)nc12 | 18.2 µM | 18.2 | 18.2 |
| COc1ccc(-c2ccc3[nH]c4c(c3c2)CCN2C[C@@H]([C@H](C)O)[C@@H](N(C)C(=O)Nc3cc(Cl)cc(Cl)c3)C[C@@H]42)cc1 | inactive | 43.8 | 30.8 |
| CCN(CCN(C)C)C(=O)C1CCN(S(=O)(=O)c2c(C)noc2/C=C/c2ccccc2F)CC1 | inactive | 28.2 | 21.4 |

| Structure (SMILES) | IC50 (PEG-3 [1]) | IC50 (PEG-3 [2]; [3]) [µM] | IC50 (PEG-3 [2]; [4]) [µM] |
| --- | --- | --- | --- |
| COc1ccc2c(c1OC)C(=O)N1c3ccccc3C(=O)N(c3ccccc3F)C21 (stereo not drawn) | 13.4 µM | 15.1 | 11.6 |
| N#Cc1ccc(Cn2cc(C=O)c3ccccc32)cc1 | inactive | 31.6 | 24.6 |
| CCCCCCOc1ccc(/C(C)=N/NC2=NCCN2)cc1 | 11.9 µM | 15.7 | 8.2 |
| CCOC(=O)C1=C(COCCN)NC(C)=C(C(=O)OC)C1c1ccccc1Cl (stereo not drawn) | 15.6 µM | 19 | 12.1 |
| O=C1OCCC1Sc1nnc(-c2ccc(Cl)cc2Cl)o1 (stereo not drawn) | inactive | 6.82 | 35.5 |
| CCOC(=O)c1c(NC(=O)CSc2nnnn2-c2ccccc2OCC)sc2c1CC(C)(C)NC2(C)C | inactive | 19.6 | 39.9 |
| CC(=O)Nc1cccc(-c2cc(NC=O)c3ncc(-c4ccc(C(C)=O)cc4)n3c2)c1 | inactive | 6 | > 100 |
| CC1(C)Cc2c(C#N)c(N3CCNCC3)nc(-c3ccco3)c2CS1 | 19.9 µM | 22.7 | 17.2 |
| Cc1c(CCOC(=O)C23CC4CC(CC(C)(C4)C2)C3)sc[n+]1CC(=O)c1ccccc1 | inactive | 21.8 | 21.7 |
| CC(=O)Nc1cccc(-c2ccnc3c2CC(C)(C(=O)Nc2cccc(OC(F)(F)F)c2)O3)c1 (stereo not drawn) | 17.3 µM | 8.81 | 25.7 |
| O=C1c2ccccc2C(=O)C12OC2c1ccc(Cl)cc1Cl (stereo not drawn) | inactive | 28.4 | 14.6 |
| COc1ccc(-c2cc(C(=O)N(C)Cc3cccc(OC)c3OC)c3ccccc3n2)cc1OC | inactive | 12.7 | 71.2 |
| Nc1c(C(=O)Nc2cccc(C(=O)O)c2)sc2nc3c(cc12)CCCC3 | 11.2 µM | 4.36 | 18 |
| NC(N)=N/N=C/c1ccc(Cl)cc1Cl | inactive | 23.6 | 17.6 |
| Cc1cccc2c1-c1sc(C(=O)NCCCN3CCCC(C)C3)cc1CO2 (stereo not drawn) | 15.6 µM | 17.5 | 13.7 |
| CCN1CCN(CCNC(=O)c2ccc(/C=C3\Sc4ccccc4N(Cc4ccccc4F)C3=O)cc2)CC1 | 14.9 µM | 20.2 | 9.63 |
| Cc1ccc2[nH]c3c(c2c1)CCCC3NC(=O)CCl (stereo not drawn) | inactive | 23.3 | 49.8 |
| COc1ccc(CC(N)c2csc(NC(=O)Nc3ccccc3C(C)(C)C)n2)cc1 (stereo not drawn) | inactive | 19.1 | 31 |
| O=C(C[n+]1ccc(-c2cc(C(=O)Nc3cccc(C(F)(F)F)c3)c3ccccc3n2)cc1)c1cccc([N+](=O)[O-])c1 | 18.6 µM | 23.4 | 13.8 |
| c1ccc(CCCNCCCn2cnc3c(OCc4ccccc4)ncnc32)cc1 | inactive | 34.7 | 19.5 |
| NC(c1csc(Nc2nccc(C(F)(F)F)n2)n1)C1CCCCC1 (stereo not drawn) | 15.9 µM | 19.1 | 12.8 |
| CC1(C)CC(NC(=O)c2cccc(S(=O)(=O)N(Cc3ccccc3)c3ccccc3)c2)CC(C)(C)N1 | 18.8 µM | 18.6 | 18.9 |

| Structure (SMILES) | IC50 (PEG-3 [1]) | IC50 (PEG-3 [2]; [3]) [µM] | IC50 (PEG-3 [2]; [4]) [µM] |
| --- | --- | --- | --- |
| CC(C)CC(NS(=O)(=O)OCC(Cl)(Cl)Cl)c1ccccc1 (stereo not drawn) | inactive | 47.6 | 17.5 |
| c1ccc(C[C@H]2CNCCN2CCCCC2CCCCC2)cc1 | 17.5 µM | 20.1 | 14.8 |
| COc1ccc(/C=C/C(=O)c2ccc3c(c2)OCCO3)cc1[N+](=O)[O-] | 17 µM | 17.2 | 16.7 |
| CC1(C)CC(NCCN2CCN(C3=CC(=C(C#N)C#N)CC(C)(C)C3)CC2)=CC(=C(C#N)C#N)C1 | inactive | > 100 | 8.4 |
| C[C@@]12C(=O)Nc3cc(Cl)ccc3C(=O)N1[C@H]1c3cc(Cl)ccc3OC[C@@H]1[C@@H]2c1ccccc1 | 11.5 µM | 16.3 | 6.77 |
| CCOc1ccc2nc(N(CCCN(C)C)C(=O)c3ccc(C(=O)c4ccccc4)cc3)sc2c1 | 13.9 µM | 20.3 | 7.58 |
| CC(C)CC(N)c1csc(NC(=O)Nc2ccccc2C(C)(C)C)n1 (stereo not drawn) | inactive | 22.7 | 18.2 |
| COc1cc2c(cc1OC)CN(c1nc(-c3cccnc3)nc3ccccc13)CC2 | inactive | 31.3 | 63.8 |
| CCCCNC(=O)C(C)N(CCN(C)C)C(=O)CCCCCN1C(=O)NC(c2ccc(Cl)cc2)C(C(=O)OCc2ccccc2)=C1C (stereo not drawn) | 13.2 µM | 16.2 | 10.1 |
| COC(=O)c1cn(NC(=O)c2cc([N+](=O)[O-])ccc2F)c(=O)c2ccccc12 | inactive | 26.1 | 46.5 |
| C[C@@H]1[C@H]2[C@@H]3CC[C@@H](C3)[C@H]2CN[C@H]1c1cn(Cc2ccccc2)c2ccccc12 | inactive | 39 | 42.7 |
| CC(C)(C)c1ccc(CN2N=Nc3ccccc3S2(=O)=O)cc1 | inactive | 30.6 | 40.1 |
| Fc1ccc([C@@H]2CCNC[C@H]2COc2ccc3c(c2)OCO3)cc1 | 19.5 µM | 20 | 19 |
| COc1ccc(-c2cc(C(=O)N3CCN(c4ccccc4F)CC3)c3ccccc3n2)c(OC)c1 | 11 µM | 9.03 | 13 |
| O=C(Nc1ccc(CN2CCCCC2)cc1)Nc1ccc(Br)cc1Cl | inactive | 20.4 | 19.8 |
| CCc1cccc(CC)c1NC(=S)NCCc1c(C)[nH]c2ccc(C)cc12 | inactive | 29.6 | 13.8 |
| CC1=C(CC[C@@H](C)CO)OC2CC3C4CCC5CC(O)CCC5(C)C4CC(=O)C3(C)C12 (stereo partly drawn) | inactive | 24.7 | 64.2 |
| CCCCCCC=C1CCC(CN2CCCC2)C1=O (stereo not drawn) | inactive | 35.6 | 29.6 |
| CCC(C)NCCOCCOc1ccc(Cl)c2ccccc12 (stereo not drawn) | 18.1 µM | 18.6 | 17.5 |
| c1ccc(-c2cc(-c3ccccc3)[n+](-c3ccccc3)c(-c3ccccc3)c2)cc1 | 12.3 µM | 10.7 | 13.9 |
| COc1cc(CNCCN2CCOCC2)ccc1OCc1ccc(Cl)cc1Cl | 19.8 µM | 20.1 | 19.5 |
| CC(C)(C)OC(=O)CC(S(=O)(=O)c1ccccc1)S(=O)(=O)c1ccccc1 | 14.3 µM | 21 | 7.58 |
